{"source": "patent US7601757B2", "about": "“Lipid system and methods of use” (Abbott Laboratories, priority 2003, dated 2009)", "origin": "cited, not measured here", "key": {"[1]": {"tested_on": "obese individuals with markers of insulin resistance", "details": "diets rich in alpha-linolenic acid as margarine and muffins made with flaxseed oil"}, "[2]": {"tested_on": "genetically insulin-resistant diabetic mice (KK-Ay)", "details": "21 days after daily administration by gavage"}}}
{"molecule": "CC/C=C\\C/C=C\\C/C=C\\CCCCCCCC(=O)O", "note": "[alpha-linolenic acid]", "values": [{"measurement": "Insulin sensitivity", "setting": "[1]", "value": "decreased"}, {"measurement": "Blood glucose response to insulin", "setting": "[2]", "value": "significant improvement"}]}
